The source made the active and inactive calls. The rule behind the calls is not given here.
Tests used:
[1] = target: T1, Aurora kinase B/Inner centromere protein (Homo sapiens) (UniProt Q96GD4+Q9NQS7)
Description: Binding affinity to human AurB/INCENP assessed as dissociation half life

[2] = target: T1, Aurora kinase B/Inner centromere protein (Homo sapiens); settings: dose 100.0 nM, time 60.0 min
[3] = target: T2, Aurora-C/INCENP (Homo sapiens, UniProt Q9NQS7+Q9UQB9); assay: Binding affinity to human AurC/INCENP assessed as inhibition constant using aurora sox peptide as substrate incubated for 60 mins in presence of ATP by fluorescence based assay; format: protein-complex assay
[4] = target: Aurora-C/INCENP (Homo sapiens) (UniProt Q9UQB9+Q9NQS7); settings: dose 100.0 nM, time 60.0 min
[5] = target: T3, Aurora kinase B/Inner centromere protein (Homo sapiens, UniProt Q96GD4); assay: Inhibition of human AurB/INCENP in PBS using Biotin-Ahx-RARRRLSFFFFAKKK-NH2 as substrate incubated for 30 mins in presence of ATP; format: protein-complex assay
[6] = target: Angiopoietin-1 receptor (Homo sapiens, UniProt Q02763); assay: Inhibition of TIE2 (unknown origin)
[7] = target: T3, Aurora kinase B/Inner centromere protein; assay: Binding affinity to human AurB/INCENP assessed as inhibition constant using aurora sox peptide as substrate incubated for 60 mins in presence of ATP by fluorescence based assay; format: protein-complex assay
[8] = target: T2, Aurora-C/INCENP; assay: Inhibition of human AurC/INCENP in PBS using Biotin-Ahx-RARRRLSFFFFAKKK-NH2 as substrate incubated for 30 mins in presence of ATP; format: protein-complex assay
[9] = target: Serine/threonine-protein kinase SIK1 (Homo sapiens, UniProt P57059); assay: Inhibition of SIK (unknown origin)
[10] = target: T1, Aurora kinase B/Inner centromere protein (Homo sapiens); settings: dose 100.0 nM, time 60.0 min; remark: listed apart in the source
[11] = target: Vascular endothelial growth factor receptor 1 (Homo sapiens, UniProt P17948); assay: Inhibition of FLT1 (unknown origin)
Vascular endothelial growth factor receptor 1, sequence (P17948 whole entry): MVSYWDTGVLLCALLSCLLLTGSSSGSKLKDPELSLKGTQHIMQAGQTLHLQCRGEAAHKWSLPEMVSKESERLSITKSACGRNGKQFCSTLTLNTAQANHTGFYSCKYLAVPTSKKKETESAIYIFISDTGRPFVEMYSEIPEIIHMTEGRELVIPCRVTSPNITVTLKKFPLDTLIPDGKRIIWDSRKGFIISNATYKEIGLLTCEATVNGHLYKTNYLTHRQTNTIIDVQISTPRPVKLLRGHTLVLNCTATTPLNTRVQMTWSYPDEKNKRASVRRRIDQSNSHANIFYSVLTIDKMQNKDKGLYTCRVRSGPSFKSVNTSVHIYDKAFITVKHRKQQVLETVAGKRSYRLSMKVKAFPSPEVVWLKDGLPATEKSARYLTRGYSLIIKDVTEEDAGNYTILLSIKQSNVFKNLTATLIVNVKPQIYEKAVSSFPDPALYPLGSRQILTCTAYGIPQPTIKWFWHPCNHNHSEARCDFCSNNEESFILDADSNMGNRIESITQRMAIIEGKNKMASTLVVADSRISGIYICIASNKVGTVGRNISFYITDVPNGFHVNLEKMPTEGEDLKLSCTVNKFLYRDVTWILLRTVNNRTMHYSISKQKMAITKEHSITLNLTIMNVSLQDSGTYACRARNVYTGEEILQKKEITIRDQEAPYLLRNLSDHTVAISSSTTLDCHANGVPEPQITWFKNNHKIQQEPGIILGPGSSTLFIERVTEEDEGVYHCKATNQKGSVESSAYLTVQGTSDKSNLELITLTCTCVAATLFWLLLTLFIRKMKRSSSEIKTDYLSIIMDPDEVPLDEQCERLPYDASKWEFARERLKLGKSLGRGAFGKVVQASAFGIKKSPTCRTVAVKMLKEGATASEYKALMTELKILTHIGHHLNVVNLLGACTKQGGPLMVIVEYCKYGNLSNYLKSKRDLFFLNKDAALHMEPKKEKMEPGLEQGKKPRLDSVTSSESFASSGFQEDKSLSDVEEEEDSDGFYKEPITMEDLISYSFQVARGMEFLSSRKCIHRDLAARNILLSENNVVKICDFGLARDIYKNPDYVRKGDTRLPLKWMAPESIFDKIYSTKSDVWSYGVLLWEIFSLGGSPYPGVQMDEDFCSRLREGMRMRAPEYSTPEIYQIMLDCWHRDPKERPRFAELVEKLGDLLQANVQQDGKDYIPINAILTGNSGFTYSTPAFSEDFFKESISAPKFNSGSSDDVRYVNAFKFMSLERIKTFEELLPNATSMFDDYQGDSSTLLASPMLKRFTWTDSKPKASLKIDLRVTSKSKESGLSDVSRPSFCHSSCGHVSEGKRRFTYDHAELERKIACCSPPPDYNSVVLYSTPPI

T2 sequence (Q9UQB9 whole entry): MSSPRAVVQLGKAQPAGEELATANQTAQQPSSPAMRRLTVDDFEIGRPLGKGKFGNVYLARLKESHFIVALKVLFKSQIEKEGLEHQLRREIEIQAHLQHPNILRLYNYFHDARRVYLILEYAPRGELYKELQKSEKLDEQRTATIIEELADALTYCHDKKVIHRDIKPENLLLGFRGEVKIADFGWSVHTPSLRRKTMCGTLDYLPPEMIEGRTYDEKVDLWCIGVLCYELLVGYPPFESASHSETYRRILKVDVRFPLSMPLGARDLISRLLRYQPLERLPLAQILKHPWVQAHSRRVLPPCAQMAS
T2 sequence (Q9NQS7 whole entry): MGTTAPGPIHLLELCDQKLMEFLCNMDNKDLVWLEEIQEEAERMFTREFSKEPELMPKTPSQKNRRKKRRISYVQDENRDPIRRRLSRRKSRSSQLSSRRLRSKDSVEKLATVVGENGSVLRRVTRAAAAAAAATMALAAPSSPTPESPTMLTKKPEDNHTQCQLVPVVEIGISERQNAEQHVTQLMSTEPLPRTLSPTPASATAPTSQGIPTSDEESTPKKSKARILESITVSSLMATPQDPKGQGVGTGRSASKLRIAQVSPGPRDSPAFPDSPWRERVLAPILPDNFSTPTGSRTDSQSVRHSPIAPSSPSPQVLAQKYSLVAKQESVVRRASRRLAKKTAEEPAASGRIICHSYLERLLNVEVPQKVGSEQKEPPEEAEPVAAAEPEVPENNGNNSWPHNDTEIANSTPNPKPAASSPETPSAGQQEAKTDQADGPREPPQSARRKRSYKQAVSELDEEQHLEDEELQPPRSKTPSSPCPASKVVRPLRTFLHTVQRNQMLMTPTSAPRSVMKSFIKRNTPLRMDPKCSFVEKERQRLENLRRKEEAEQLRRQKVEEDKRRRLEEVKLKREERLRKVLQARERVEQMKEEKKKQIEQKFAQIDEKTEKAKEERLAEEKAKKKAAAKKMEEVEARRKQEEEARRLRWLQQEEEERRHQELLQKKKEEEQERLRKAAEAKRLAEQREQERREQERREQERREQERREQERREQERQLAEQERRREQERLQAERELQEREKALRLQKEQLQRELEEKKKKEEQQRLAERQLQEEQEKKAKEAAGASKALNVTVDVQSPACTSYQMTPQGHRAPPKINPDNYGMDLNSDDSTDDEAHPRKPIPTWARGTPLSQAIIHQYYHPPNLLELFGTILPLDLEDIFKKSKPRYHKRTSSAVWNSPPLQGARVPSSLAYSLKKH
T3 sequence (Q96GD4 whole entry): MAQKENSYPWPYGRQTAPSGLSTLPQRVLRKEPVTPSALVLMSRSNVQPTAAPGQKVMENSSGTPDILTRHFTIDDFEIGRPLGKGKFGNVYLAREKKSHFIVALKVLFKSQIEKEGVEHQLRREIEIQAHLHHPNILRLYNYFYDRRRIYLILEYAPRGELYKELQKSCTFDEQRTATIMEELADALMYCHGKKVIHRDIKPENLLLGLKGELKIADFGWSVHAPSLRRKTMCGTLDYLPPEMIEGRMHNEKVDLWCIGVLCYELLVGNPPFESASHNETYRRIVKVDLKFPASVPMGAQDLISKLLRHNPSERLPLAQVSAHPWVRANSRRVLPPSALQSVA
T3 sequence (Q9NQS7 whole entry, further chain): as the sequence (Q9NQS7 whole entry) above
Angiopoietin-1 receptor, sequence (Q02763 whole entry): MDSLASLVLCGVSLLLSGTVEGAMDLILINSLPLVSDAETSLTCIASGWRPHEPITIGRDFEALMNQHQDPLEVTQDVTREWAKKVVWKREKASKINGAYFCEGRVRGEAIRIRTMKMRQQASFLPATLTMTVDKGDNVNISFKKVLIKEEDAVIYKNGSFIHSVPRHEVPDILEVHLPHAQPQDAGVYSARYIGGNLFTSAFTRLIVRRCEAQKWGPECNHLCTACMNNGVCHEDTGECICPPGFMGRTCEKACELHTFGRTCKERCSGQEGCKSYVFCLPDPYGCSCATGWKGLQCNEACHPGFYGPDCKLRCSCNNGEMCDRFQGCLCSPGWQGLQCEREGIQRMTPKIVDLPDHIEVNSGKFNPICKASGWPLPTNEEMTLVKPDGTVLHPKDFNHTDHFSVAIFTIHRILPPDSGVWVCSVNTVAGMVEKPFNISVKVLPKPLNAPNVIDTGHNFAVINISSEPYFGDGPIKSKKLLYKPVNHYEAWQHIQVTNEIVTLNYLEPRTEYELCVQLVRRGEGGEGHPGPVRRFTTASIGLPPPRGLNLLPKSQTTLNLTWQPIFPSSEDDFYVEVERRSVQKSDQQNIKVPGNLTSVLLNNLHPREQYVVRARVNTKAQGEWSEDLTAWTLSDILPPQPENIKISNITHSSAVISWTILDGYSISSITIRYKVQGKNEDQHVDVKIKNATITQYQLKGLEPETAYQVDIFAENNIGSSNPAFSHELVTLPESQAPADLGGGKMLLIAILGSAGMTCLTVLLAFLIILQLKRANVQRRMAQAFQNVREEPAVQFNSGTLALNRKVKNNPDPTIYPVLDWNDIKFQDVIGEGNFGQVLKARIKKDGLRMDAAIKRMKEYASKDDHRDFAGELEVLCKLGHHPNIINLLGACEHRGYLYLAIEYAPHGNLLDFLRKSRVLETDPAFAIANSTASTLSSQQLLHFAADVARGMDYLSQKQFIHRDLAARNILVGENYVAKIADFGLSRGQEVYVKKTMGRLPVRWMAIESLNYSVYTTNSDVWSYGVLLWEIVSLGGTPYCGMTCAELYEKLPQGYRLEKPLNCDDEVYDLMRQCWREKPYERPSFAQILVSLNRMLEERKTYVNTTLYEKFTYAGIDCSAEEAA
Serine/threonine-protein kinase SIK1, sequence (P57059 whole entry): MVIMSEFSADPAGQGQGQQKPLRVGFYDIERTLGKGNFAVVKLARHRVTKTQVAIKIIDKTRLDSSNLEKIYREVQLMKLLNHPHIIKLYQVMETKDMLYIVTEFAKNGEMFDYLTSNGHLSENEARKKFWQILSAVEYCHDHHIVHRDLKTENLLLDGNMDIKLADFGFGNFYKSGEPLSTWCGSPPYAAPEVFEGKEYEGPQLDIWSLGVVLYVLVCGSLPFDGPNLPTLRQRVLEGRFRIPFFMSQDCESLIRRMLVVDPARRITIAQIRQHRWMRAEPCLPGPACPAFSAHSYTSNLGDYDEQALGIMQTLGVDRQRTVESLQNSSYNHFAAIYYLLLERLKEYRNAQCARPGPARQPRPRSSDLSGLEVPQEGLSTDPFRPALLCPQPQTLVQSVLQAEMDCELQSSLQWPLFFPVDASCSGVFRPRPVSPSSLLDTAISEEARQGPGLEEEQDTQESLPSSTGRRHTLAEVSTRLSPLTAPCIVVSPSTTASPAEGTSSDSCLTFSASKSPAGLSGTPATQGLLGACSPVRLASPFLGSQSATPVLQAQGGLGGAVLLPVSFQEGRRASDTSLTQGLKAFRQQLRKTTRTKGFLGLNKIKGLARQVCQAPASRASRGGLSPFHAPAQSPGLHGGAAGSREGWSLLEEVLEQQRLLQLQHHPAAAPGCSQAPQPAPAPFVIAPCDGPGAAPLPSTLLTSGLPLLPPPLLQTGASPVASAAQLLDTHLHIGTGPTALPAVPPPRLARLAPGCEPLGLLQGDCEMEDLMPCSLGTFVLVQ

T1/2 [1]	Compound	T1/2 [2]	Ki [3]	T1/2 [4]	IC50 [5]	IC50 [6]	Ki [7]	IC50 [8]	IC50 [9]	inhibition [10]	IC50 [11]
15 min	CCN(CCCOc1ccc2c(Nc3cc(CC(=O)Nc4cccc(F)c4)[nH]n3)ncnc2c1)CCOP(=O)(O)O	–	–	–	–	–	–	–	–	–	–
25 min	Cc1cc(Nc2cc(N3CCN(C)CC3)nc(Sc3ccc(NC(=O)C4CC4)cc3)n2)n[nH]1	–	–	–	–	–	–	–	–	–	–
–	CCn1cc(-c2ccnc3[nH]c(-c4cccc(CN(C)C)c4)cc23)c(-c2ccc(NC(=O)N(C)C)cc2)n1 [GSK-1070916]	> 480 min	1.45 nM	270 min	3.5 nM	59 nM	0.38 nM	6.5 nM	70 nM	Active	42 nM

From ChEMBL document CHEMBL5653602, “Biochemical characterization of GSK1070916, a potent and selective inhibitor of Aurora B and Aurora C kinases with an extremely long residence time1” (Biochem J, 2009)
